Results taken from US8846653B2, “Delta-tocotrienol treatment and prevention of pancreatic cancer” (University of South Florida, priority 2006, dated 2014).

Columns and labels:
Type in all cases: cell-based, human
BXPC3 cells = assay: MTT assay of BXPC3 cultures, single 50 μM dose; parameters: MTT assay result, run 1 / MTT assay result, run 2 / MTT assay result, run 3 / MTT assay result, run 4 / MTT assay result, run 5 / MTT assay result, run 6 / MTT assay result, run 7 / MTT assay result, av (average) / MTT assay result, av-blank / MTT assay result, av: unit not given here; details: BXPC3, 50 μM; for MTT assay result, av-blank: average minus blank
In short: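 Viability measured by MTT assay 48 or 120 hours after one 50 μM treatment with tocol-family compounds, geranylgeraniol, succinic acid or vehicle, with untreated cultures in parallel. BXPC3 cells grown in FBS-supplemented medium, 37° C, humidified 5% CO2.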

MiaPaCa-2 cells [1] = assay: MTS assay of MiaPaCa2 cultures, single 50 μM dose; details: MiaPaCa2, 50 μM
In short: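 This MTS viability assay used MiaPaCa2 cultures treated once with 50 μM compound or vehicle, with an untreated culture grown in parallel for comparison. Cells were maintained in DMEM supplemented with 10% FBS, 1% penicillin-streptomycin and 1% L-glutamine at 37° C. under 5% CO2 and humidity.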

MiaPaCa-2 cells [2] = assay: MTT assay of MiaPaCa2 cultures, single 50 μM dose; parameters: rel amt (relative value set to the control): unit not given here; details: MiaPaCa2, 50 μM; for MTT assay result, av-blank: average minus blank; for MTT assay result, av: average of 7 runs
In short: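 Viability measured by MTT 48 or 120 hours post-treatment, with a vehicle-only (ethanol-extracted olive oil) culture as control. MiaPaCa-2 cultures received one 50 μM exposure to a tocotrienol, tocopherol, tocopherol succinate, geranylgeraniol or succinic acid.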

Cc1c(C)c2c(c(C)c1OC(=O)CCC(=O)O)CC[C@@](C)(CCC[C@H](C)CCC[C@H](C)CCCC(C)C)O2 [TS, tocopherol succinate]
rel amt (relative value set to the control) (BXPC3 cells; 48 hours): 100 | MTT assay result, av-blank (BXPC3 cells; 48 hours): 0.229 | MTT assay result, av (average) (BXPC3 cells; 48 hours, average of 7 runs): 0.278 | MTT assay result, run 1 (BXPC3 cells; 48 hours): 0.271 | MTT assay result, run 2 (BXPC3 cells; 48 hours): 0.274 | MTT assay result, run 3 (BXPC3 cells; 48 hours): 0.296 | MTT assay result, run 4 (BXPC3 cells; 48 hours): 0.271 | MTT assay result, run 5 (BXPC3 cells; 48 hours): 0.282 | MTT assay result, run 6 (BXPC3 cells; 48 hours): 0.274 | MTT assay result, run 7 (BXPC3 cells; 48 hours): 0.277 | rel amt (relative value set to the control) (BXPC3 cells; 120 hours (5 days)): 17 | MTT assay result, av-blank (BXPC3 cells; 120 hours (5 days)): 0.097 | MTT assay result, av (BXPC3 cells; 120 hours (5 days), average of 7 runs): 0.152 | MTT assay result, run 1 (BXPC3 cells; 120 hours (5 days)): 0.192 | MTT assay result, run 2 (BXPC3 cells; 120 hours (5 days)): 0.127 | MTT assay result, run 3 (BXPC3 cells; 120 hours (5 days)): 0.142 | MTT assay result, run 4 (BXPC3 cells; 120 hours (5 days)): 0.162 | MTT assay result, run 5 (BXPC3 cells; 120 hours (5 days)): 0.116 | MTT assay result, run 6 (BXPC3 cells; 120 hours (5 days)): 0.129 | MTT assay result, run 7 (BXPC3 cells; 120 hours (5 days)): 0.199 | rel amt (relative value set to the control) (MiaPaCa-2 cells [1]; 24 hours): 96 | MTS assay result, run 1 (MiaPaCa-2 cells [1]; 24 hours): 0.24 | MTS assay result, run 2 (MiaPaCa-2 cells [1]; 24 hours): 0.211 | MTS assay result, run 3 (MiaPaCa-2 cells [1]; 24 hours): 0.226 | MTS assay result, run 4 (MiaPaCa-2 cells [1]; 24 hours): 0.172 | MTS assay result, run 5 (MiaPaCa-2 cells [1]; 24 hours): 0.221 | MTS assay result, run 6 (MiaPaCa-2 cells [1]; 24 hours): 0.201 | MTS assay result, run 7 (MiaPaCa-2 cells [1]; 24 hours): 0.214 | MTS assay result, run 8 (MiaPaCa-2 cells [1]; 24 hours): 0.228 | MTS assay result, run 9 (MiaPaCa-2 cells [1]; 24 hours): 0.214 | rel amt (relative value set to the control) (MiaPaCa-2 cells [1]; 48 hours): 76 | MTS assay result, run 1 (MiaPaCa-2 cells [1]; 48 hours): 0.257 | MTS assay result, run 2 (MiaPaCa-2 cells [1]; 48 hours): 0.254 | MTS assay result, run 3 (MiaPaCa-2 cells [1]; 48 hours): 0.262 | MTS assay result, run 4 (MiaPaCa-2 cells [1]; 48 hours): 0.237 | MTS assay result, run 5 (MiaPaCa-2 cells [1]; 48 hours): 0.258 | MTS assay result, run 6 (MiaPaCa-2 cells [1]; 48 hours): 0.275 | MTS assay result, run 7 (MiaPaCa-2 cells [1]; 48 hours): 0.32 | MTS assay result, run 8 (MiaPaCa-2 cells [1]; 48 hours): 0.337 | MTS assay result, run 9 (MiaPaCa-2 cells [1]; 48 hours): 0.275 | rel amt (relative value set to the control) (MiaPaCa-2 cells [1]; 72 hours): 207 | MTS assay result, run 1 (MiaPaCa-2 cells [1]; 72 hours): 0.998 | MTS assay result, run 2 (MiaPaCa-2 cells [1]; 72 hours): 0.962 | MTS assay result, run 3 (MiaPaCa-2 cells [1]; 72 hours): 1.016 | MTS assay result, run 4 (MiaPaCa-2 cells [1]; 72 hours): 0.887 | MTS assay result, run 5 (MiaPaCa-2 cells [1]; 72 hours): 0.936 | MTS assay result, run 6 (MiaPaCa-2 cells [1]; 72 hours): 0.897 | MTS assay result, run 7 (MiaPaCa-2 cells [1]; 72 hours): 0.85 | MTS assay result, run 8 (MiaPaCa-2 cells [1]; 72 hours): 0.801 | MTS assay result, run 9 (MiaPaCa-2 cells [1]; 72 hours): 0.918 | rel amt (relative value set to the control) (MiaPaCa-2 cells [2]; 48 hours): 48 | MTT assay result, av-blank (MiaPaCa-2 cells [2]; 48 hours): 0.148 | MTT assay result, av (MiaPaCa-2 cells [2]; 48 hours): 0.194 | MTT assay result, run 1 (MiaPaCa-2 cells [2]; 48 hours): 0.215 | MTT assay result, run 2 (MiaPaCa-2 cells [2]; 48 hours): 0.184 | MTT assay result, run 3 (MiaPaCa-2 cells [2]; 48 hours): 0.2 | MTT assay result, run 4 (MiaPaCa-2 cells [2]; 48 hours): 0.187 | MTT assay result, run 5 (MiaPaCa-2 cells [2]; 48 hours): 0.194 | MTT assay result, run 6 (MiaPaCa-2 cells [2]; 48 hours): 0.19 | MTT assay result, run 7 (MiaPaCa-2 cells [2]; 48 hours): 0.185 | rel amt (relative value set to the control) (MiaPaCa-2 cells [2]; 120 hours (5 days)): 43 | MTT assay result, av-blank (MiaPaCa-2 cells [2]; 120 hours (5 days)): 0.773 | MTT assay result, av (MiaPaCa-2 cells [2]; 120 hours (5 days)): 0.825 | MTT assay result, run 1 (MiaPaCa-2 cells [2]; 120 hours (5 days)): 0.732 | MTT assay result, run 2 (MiaPaCa-2 cells [2]; 120 hours (5 days)): 0.776 | MTT assay result, run 3 (MiaPaCa-2 cells [2]; 120 hours (5 days)): 0.786 | MTT assay result, run 4 (MiaPaCa-2 cells [2]; 120 hours (5 days)): 0.714 | MTT assay result, run 5 (MiaPaCa-2 cells [2]; 120 hours (5 days)): 0.939 | MTT assay result, run 6 (MiaPaCa-2 cells [2]; 120 hours (5 days)): 0.859 | MTT assay result, run 7 (MiaPaCa-2 cells [2]; 120 hours (5 days)): 0.968
